Results as given in patent US20190224222A1, “METHOD OF INHIBITING QUORUM SENSING USING D-GALACTOSE” (Seoul National University R&DB Foundation, priority 2014, published 2019).

Columns and labels:
[1] = system: T. forsythia (Tf) biofilm; assay: Tf biofilm formation induced by Fn AI-2, fluorescence staining (confocal); type: cell-based, T. forsythia (ATCC 43037); settings: D-rib or D-gal 200 mM
Experimental: (§1) Further, inhibitory effects of individual QSI candidates on Tf biofilm formation induced by Fn AI-2 were examined by fluorescence staining. 2 ml of Tf culture broth (the number of bacteria: 2×10^8/ml) was used, and Fn AI-2 was used in a volume of 10% (v/v) with respect to the total volume of a mixture with Tf culture broth. As the QSI candidates, 200 mM of D-rib or D-gal was used, and 20 μM of the furanone compound was used. Biofilms formed on the cover slip were stained with fluorescent materials using the live/dead-BacLight viability kit (Invitrogen, Grand Island, N.Y., USA) and observed using a confocal microscope (Carl Zeiss, LSM 700). […] Fluorescence intensities of the obtained individual fluorescence images were quantified using ZEN 2010 program of a confocal microscope, and shown in FIG. 9.

Fn AI-2 activity = assay: AI-2 activity, bioluminescence of reporter strain V. harveyi BB170; type: cell-based, Vibrio harveyi BB170 (ATCC BAA-1117); settings: for Bioluminescence: V. harveyi BB170 + Fn AI-2 10% (v/v), sugar 20 mM, lower = higher inhibition, Fn/AI-2 control 10712312, BB170 alone 856873
Experimental: The quorum sensing autoinducer, AI-2 stimulates luciferase operon (lux genes) of V. harveyi to induce luciferase expression, resulting in luminescence. Therefore, inhibition of AI-2 activity was confirmed by measuring bioluminescence by AI-2. Bioluminescence mediated by AI-2 was determined using the AI-2 reporter strain V. harveyi BB170. V. harveyi BB170 was cultured in AB medium overnight at 30° C. until OD600 nm=0.7. The bacteria were washed with fresh AB medium and diluted to a concentration of 10^6 cells/ml. Thereafter, V. harveyi BB170 culture broth (5 ml) was mixed with a partially purified F. nucleatum AI-2(′Fn AI-2′) and D-gal (0 or 20 mM) or D-rib (0 or 20 mM). The partially purified Fn AI-2 was obtained by partially purifying the Fn culture broth using a C18 Sep-Pak reverse-phase column (Waters Co., Milford, Mass.). The Fn culture broth or the partially purified Fn AI-2 was added such that a final concentration of AI-2 in the mixture was 10% (vol/vol). 10% (v/v) of Fn AI-2 corresponds to the Fn bacterial number of 1.9×10^8. Then, culture was performed at 30° C. for 1-8 hours. The bioluminescence was measured using a luminometer (GloMax1—Multi detection System, Promega, Madison, Wis.). BB170 is one of V. harveyi bacteria which have a characteristic of recognizing AI-2 to show bioluminescence. The higher bioluminescence value thus measured represents higher AI-2 activity.

[2] = system: F. nucleatum (Fn) biofilm; assay: Fn biofilm formation induced by Fn AI-2, fluorescence staining (confocal); type: cell-based, F. nucleatum (ATCC 25586); settings: D-rib or D-gal 200 mM, Fn AI-2 10% (v/v)
Experimental: as §1, with “Fn” for “Tf”, “2×10^7/ml)” for “2×10^8/ml)”, “3.” for “9.”

[3] = system: F. nucleatum (Fn) biofilm; assay: Fn biofilm formation induced by Fn AI-2, crystal violet staining; type: cell-based, F. nucleatum (ATCC 25586); settings: for OD590 nm: Fn + Fn AI-2 10% (v/v), sugar 2 mM, 48-72 h, smaller OD = more inhibition of biofilm, Fn/AI-2 control 1.5, Fn 0.46
Experimental: To test biofilm formation by Fn, a Fn culture broth (2 ml; a negative control group, the number of bacteria: 2×10^7/ml), a mixture of Fn culture broth (2 ml) and F. nucleatum AI-2 (purified from F. nucleatum secretary material of F. nucleatum culture broth using a C18 Sep-Pak reverse-phase column (Waters Co., Milford, Mass.); hereinafter, referred to as ‘Fn AI-2’; 10% (v/v) with respect to the total volume of the mixture with Fn culture broth), or a mixture of Fn culture broth (2 ml) and Fn AI-2 (10% (v/v) with respect to the total volume of the mixture with Fn culture broth) and each of QSI candidates was added to a 24-well plate with a glass slip (round, 12 mm radius), and cultured under anaerobic conditions for 48-72 hours. As the QSI candidates, sugars (D-rib, D-gal, D-Glu, D-Man, or D-ara) were used in an amount of 2 mM, and the furanone compound [(5Z)-4-bromo-5-(bromomethylene)-2(5H)-furanone] was used in an amount of 2 μM.
(§2) Biofilms formed on the cover slips were stained with 10% crystal violet [Tris(4-(dimethylamino)phenyl)methylium chloride] for 10 minutes, washed three times with PBS, and destained with 1 ml of acetone-alcohol (20:80, vol/vol). The optical density at 590 nm of the destaining solution containing crystal violet was measured using a microplate reader (a Wallac Victor3 microtiter, PerkinElmer Life Sciences, Waltham, Mass.). The smaller optical density (OD590) measured at 590 nm represents more inhibition of biofilm formation, that is, higher quorum sensing inhibitory effect of the used QSI candidate.

[4] = system: T. forsythia (Tf) biofilm; assay: Tf biofilm formation induced by Fn AI-2, crystal violet staining; type: cell-based, T. forsythia (ATCC 43037); settings: for OD590 nm: Tf + Fn AI-2 10% (v/v), sugar 2 mM, 48-72 h, Tf/AI-2 control 0.48, Tf 0.32; for inhibitory effect on Tf biofilm formation, in words: crystal violet, sugars 2 mM
Experimental: To test biofilm formation by Tf, a test was performed in the same manner as in Example 3. That is, a Tf culture broth (2 ml; a negative control group, the number of bacteria: 2×10^8/ml), a mixture of Tf culture broth (2 ml) and Fn AI-2 (10% (v/v) with respect to the total volume of the mixture with Tf culture broth), or a mixture of Tf culture broth (2 ml) and Fn AI-2 (10% (v/v) with respect to the total volume of the mixture with Tf culture broth) and D-gal (2 mM) was added to a 24-well plate with a glass slip (round, 12 mm radius), and cultured under anaerobic conditions for 48-72 hours. For comparison, 2 mM of D-rib or 2 μM of the furanone compound [(5Z)-4-bromo-5-(bromomethylene)-2(5H)-furanone] was used instead of D-gal to perform the same test.
as §2

| Structure (SMILES) | inhibitory effect on Tf biofilm formation, in words [1] | bioluminescence relative to the bioluminescence upon addition of D-rib (Fn AI-2 activity; D-gal 20 mM vs D-rib 20 mM) | Bioluminescence (Fn AI-2 activity) | quorum sensing inhibitory efficacy relative to D-ribose, in words (Fn AI-2 activity; general statement of the specification) | inhibitory effect on Fn biofilm formation, in words [2] | OD590 nm [3] | QSI inhibitory effect (inhibitory effect on Fn biofilm formation), in words ([3]; crystal violet, sugars 2 mM, compared to negative control Fn/AI-2) | OD590 nm [4] | inhibitory effect on Tf biofilm formation, in words [4] |
| --- | --- | --- | --- | --- | --- | --- | --- | --- | --- |
| O=C[C@H](O)[C@@H](O)[C@@H](O)[C@H](O)CO [D-gal, D-galactose] | most excellent inhibitory effect | about 20% | 1138752 | twice higher than that of D-ribose | remarkably excellent inhibitory effect | 0.57 | excellent QSI inhibitory effect | 0.2 | excellent inhibitory effect |
| O=C[C@H](O)[C@H](O)[C@H](O)CO [D-rib, D-ribose, reference compound] | inhibited | – | 5481975 | – | inhibited | 0.77 | – | 0.41 | significant inhibitory effect |
